Test results published in ChEMBL document CHEMBL1201862, “PubChem BioAssay data set” (2004).
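Each compound was tested at five concentrations against cells in 96-well plates for 48 hours. At the GI50, growth is halved.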 The source made the active and inactive calls. No stated cut-off is given here; in the data, active = GI50 up to about 1.1 µM and inactive = higher.

What was measured:
Assay in all cases: DTP human tumour cell line panel, 48 h
OVCAR-3 = tested on: OVCAR-3
NCI-H226 = tested on: NCI-H226
HCC 2998 = tested on: HCC 2998
M14 = tested on: M14
HT-29 = tested on: HT-29
K562 = tested on: K562
CCRF-CEM = tested on: CCRF-CEM
SN12C = tested on: SN12C
A498 = tested on: A498
U-251 = tested on: U-251
Hs-578T = tested on: Hs-578T
OVCAR-8 = tested on: OVCAR-8
MDA-N = tested on: MDA-N
UACC-257 = tested on: UACC-257
HOP-92 = tested on: HOP-92
NCI/ADR-RES = tested on: NCI/ADR-RES
UO-31 = tested on: UO-31
TK-10 = tested on: TK-10
NCI-H522 = tested on: NCI-H522
Malme-3M = tested on: Malme-3M

SMILES	GI50 (OVCAR-3)	GI50 (NCI-H226)	GI50 (HCC 2998)	GI50 (M14)	GI50 (HT-29)	GI50 (K562)	GI50 (CCRF-CEM)	GI50 (SN12C)	GI50 (A498)	GI50 (U-251)	GI50 (Hs-578T)	GI50 (OVCAR-8)	GI50 (MDA-N)	GI50 (UACC-257)	GI50 (HOP-92)	GI50 (NCI/ADR-RES)	GI50 (UO-31)	GI50 (TK-10)	GI50 (NCI-H522)	GI50 (Malme-3M)
CCOC(=O)N1[C@@H]2CCC[C@@H]2C(=O)[C@@H]2CCC[C@@H]21	> 100 µM (inactive)	> 100 µM (inactive)	> 100 µM (inactive)	> 100 µM (inactive)	> 100 µM (inactive)	> 100 µM (inactive)	> 100 µM (inactive)	> 100 µM (inactive)	> 100 µM (inactive)	> 100 µM (inactive)	> 100 µM (inactive)	> 100 µM (inactive)	> 100 µM (inactive)	> 100 µM (inactive)	> 100 µM (inactive)	> 100 µM (inactive)				
Cc1ccccc1NC(=O)Cc1csc(N/N=C2\C(=O)Nc3ccccc32)n1		41.8 µM (inactive)		50 µM (inactive)	55.6 µM (inactive)	64.7 µM (inactive)	46 µM (inactive)	61.2 µM (inactive)	> 100 µM (inactive)	1 µM (active)	25.8 µM (inactive)	16.6 µM (inactive)	75.2 µM (inactive)	91 µM (inactive)	30.2 µM (inactive)	29.7 µM (inactive)	40.8 µM (inactive)	53.2 µM (inactive)	17.7 µM (inactive)	32.4 µM (inactive)
OC(c1ccc(-c2ccccc2)cc1)(c1ccc(-c2ccccc2)cc1)c1ccc(-c2ccccc2)cc1	> 100 µM (inactive)			52.7 µM (inactive)	> 100 µM (inactive)	> 100 µM (inactive)	> 10 µM (inactive)	> 100 µM (inactive)		> 100 µM (inactive)	> 100 µM (inactive)	> 100 µM (inactive)	> 100 µM (inactive)	> 100 µM (inactive)		> 100 µM (inactive)	> 100 µM (inactive)	> 100 µM (inactive)	> 100 µM (inactive)	
CN(C)CCNC(=O)c1cccc2nc3c4ccccc4c4ccccc4c3nc12	3.44 µM (inactive)	9.86 µM (inactive)	5.27 µM (inactive)	2.29 µM (inactive)	1.51 µM (inactive)	1.52 µM (inactive)	1.13 µM (inactive)	1.92 µM (inactive)	7 µM (inactive)	2 µM (inactive)	1.31 µM (inactive)	2.02 µM (inactive)	1.65 µM (inactive)	3.86 µM (inactive)	7.82 µM (inactive)		9.44 µM (inactive)	5.38 µM (inactive)	2.71 µM (inactive)	1.8 µM (inactive)
COc1ccc(C2C3=C(Nc4ncnn42)c2ccccc2OC3c2ccccc2)cc1 (stereo not drawn)	27.8 µM (inactive)			61.8 µM (inactive)		11 µM (inactive)		> 100 µM (inactive)	1.03 µM (active)	42.3 µM (inactive)	19.1 µM (inactive)	80.2 µM (inactive)	11 µM (inactive)	70 µM (inactive)		47.8 µM (inactive)	50.1 µM (inactive)			
O=C(CN1CCCCC1)c1ccc2[nH]c(=O)oc2c1	> 100 µM (inactive)	> 100 µM (inactive)		> 100 µM (inactive)	> 100 µM (inactive)	> 100 µM (inactive)	> 100 µM (inactive)	> 100 µM (inactive)	> 100 µM (inactive)	> 100 µM (inactive)	> 100 µM (inactive)	> 100 µM (inactive)	> 100 µM (inactive)	> 100 µM (inactive)		> 100 µM (inactive)		> 100 µM (inactive)		> 100 µM (inactive)
Cc1cccc(/C=C2\CCCCCC2=O)c1	> 100 µM (inactive)	> 100 µM (inactive)	> 100 µM (inactive)	> 100 µM (inactive)	> 100 µM (inactive)	> 100 µM (inactive)	28.8 µM (inactive)	> 100 µM (inactive)	> 100 µM (inactive)	> 100 µM (inactive)	> 100 µM (inactive)		> 100 µM (inactive)	> 100 µM (inactive)	> 100 µM (inactive)		> 100 µM (inactive)	> 100 µM (inactive)	> 100 µM (inactive)	> 100 µM (inactive)
COC(Cc1cc(C(O)(c2ccc(C(C)(C)C)cc2)c2cc(CC(OC)(c3cc(C(OC)(c4ccc(C(C)(C)C)cc4)c4ccc(C(C)(C)C)cc4)c(C)cc3C)c3cc(C(OC)(c4ccc(C(C)(C)C)cc4)c4ccc(C(C)(C)C)cc4)c(C)cc3C)c(C)cc2C)c(C)cc1C)(c1cc(C(OC)(c2ccc(C(C)(C)C)cc2)c2ccc(C(C)(C)C)cc2)c(C)cc1C)c1cc(C(OC)(c2ccc(C(C)(C)C)cc2)c2ccc(C(C)(C)C)cc2)c(C)cc1C	> 75 µM (inactive)	> 75 µM (inactive)	> 75 µM (inactive)	> 75 µM (inactive)	> 75 µM (inactive)	> 75 µM (inactive)	> 75 µM (inactive)	> 75 µM (inactive)	> 75 µM (inactive)	> 75 µM (inactive)	> 75 µM (inactive)	> 75 µM (inactive)	> 75 µM (inactive)	> 75 µM (inactive)	> 75 µM (inactive)	> 75 µM (inactive)	> 75 µM (inactive)	> 75 µM (inactive)		> 75 µM (inactive)
